Reference: patent US4808621A, “Trans-6-[2-(N-heteroaryl-3,5-disubstituted)pyrazol-4-yl)-ethyl]- or ethenyl]tetrahydro-4-hydroxypyran-2-one inhibitors of cholesterol biosynthesis” (Warner-Lambert Company, priority 1987, dated 1989)

Tests used:
[1] = system: sterol synthesis by rat liver homogenate; assay: CSI screen: inhibition of incorporation of 14C-acetate into nonsaponifiable lipid by rat liver homogenate (sterol synthesis); format: biochemical; conditions: 50% inhibition of sterol synthesis over a one-hour period, liver homogenate of cholestyramine-fed rats
Description: The ability of compounds of the present invention to inhibit the biosynthesis of cholesterol was measured by two methods. A first method (designated CSI screen) utilized the procedure described by R. E. Dugan et al., Archiv. Biochem. Biophys., (1972), 152, 21-27. In this method, the level of HMG-CoA enzyme activity in standard laboratory rats is increased by feeding the rats a chow diet containing 5% cholestyramine for four days, after which the rats are sacrificed.
The rat livers are homogenized, and the incorporation of ^14 C-acetate into nonsaponifiable lipid by the rat liver homogenate is measured. The micromolar concentration of compound required for 50% inhibition of sterol synthesis over a one-hour period is measured, and expressed as an IC50 value.

HMG-CoA reductase = target: T1, HMG-CoA reductase (Rattus norvegicus, UniProt P51639); assay: COR screen: conversion of 14C-HMG-CoA to 14C-mevalonate by purified HMG-CoA reductase; format: biochemical; conditions: purified enzyme preparation of HMG-CoA reductase, 14C-HMG-CoA converted to 14C-mevalonate
T1 sequence (P51639 1-887): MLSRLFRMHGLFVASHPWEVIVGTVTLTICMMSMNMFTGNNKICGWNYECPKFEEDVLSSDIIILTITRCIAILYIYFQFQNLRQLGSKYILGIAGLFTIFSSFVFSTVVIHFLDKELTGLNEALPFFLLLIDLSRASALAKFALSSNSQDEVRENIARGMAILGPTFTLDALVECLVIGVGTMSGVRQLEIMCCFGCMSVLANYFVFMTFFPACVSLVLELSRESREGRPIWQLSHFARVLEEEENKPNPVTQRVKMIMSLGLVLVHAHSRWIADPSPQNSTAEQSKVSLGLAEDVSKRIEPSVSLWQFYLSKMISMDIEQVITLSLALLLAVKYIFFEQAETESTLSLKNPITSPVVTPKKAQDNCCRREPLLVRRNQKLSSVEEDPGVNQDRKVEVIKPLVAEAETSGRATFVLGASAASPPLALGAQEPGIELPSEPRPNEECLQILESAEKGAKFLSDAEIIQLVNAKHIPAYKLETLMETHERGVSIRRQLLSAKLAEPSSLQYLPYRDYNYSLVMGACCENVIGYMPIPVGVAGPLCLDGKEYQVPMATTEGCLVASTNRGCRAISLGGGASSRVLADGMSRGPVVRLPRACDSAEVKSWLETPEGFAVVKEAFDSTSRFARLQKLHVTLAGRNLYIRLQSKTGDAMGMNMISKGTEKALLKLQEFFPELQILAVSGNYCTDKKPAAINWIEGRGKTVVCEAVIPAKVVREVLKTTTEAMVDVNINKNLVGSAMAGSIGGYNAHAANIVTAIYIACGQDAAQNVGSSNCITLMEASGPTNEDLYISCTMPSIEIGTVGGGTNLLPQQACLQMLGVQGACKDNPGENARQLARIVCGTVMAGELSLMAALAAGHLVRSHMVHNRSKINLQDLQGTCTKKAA
Description: A second method (designated COR screen) employed the procedure detailed by T. Kita, et al., J. Clin. Invest., (1980), 66: 1094-1100. In this method, the amount of ^14 C-HMG-CoA converted to ^14 C-mevalonate in the presence of a purified enzyme preparation of HMG-CoA reductase was measured. The micromolar concentration of compound required for 50% inhibition of cholesterol synthesis was measured and recorded as an IC50 value.

IC50 [1] [nM] | IC50 (HMG-CoA reductase) [nM] | Structure (SMILES)
39 | 110 | CC(C)c1nn(-c2ccccn2)c(-c2ccc(F)cc2)c1CC[C@H]1C[C@H](O)CC(=O)O1 (relative stereo) [Compound 1, trans-6-[2-[5-(4-fluorophenyl)-3-(1-methylethyl)-1-(2-pyridinyl)-1H-pyrazol-4-yl]ethyl]tetrahydro-4-hydroxy-2H-pyran-2-one]
26 |  | CC[C@H](C)C(=O)O[C@H]1CCC=C2C=C[C@H](C)[C@H](CC[C@@H]3C[C@@H](O)CC(=O)O3)[C@H]21 [Compactin, reference compound]
